{"source": "patent US20080234266A1", "about": "“Squaric Acid Derivatives II” (priority 2005, published 2008)", "note": "pIC50: −log10 of the molar value."}
{"molecular_target": "T1, CHK1 kinase (Homo sapiens, UniProt O14757)", "T1 construct": "glutathione S-transferase (GST); made in house; host or cells: Sf21 insect cells (S. frugiperda), baculovirus", "T1 sequence (O14757 1-476)": "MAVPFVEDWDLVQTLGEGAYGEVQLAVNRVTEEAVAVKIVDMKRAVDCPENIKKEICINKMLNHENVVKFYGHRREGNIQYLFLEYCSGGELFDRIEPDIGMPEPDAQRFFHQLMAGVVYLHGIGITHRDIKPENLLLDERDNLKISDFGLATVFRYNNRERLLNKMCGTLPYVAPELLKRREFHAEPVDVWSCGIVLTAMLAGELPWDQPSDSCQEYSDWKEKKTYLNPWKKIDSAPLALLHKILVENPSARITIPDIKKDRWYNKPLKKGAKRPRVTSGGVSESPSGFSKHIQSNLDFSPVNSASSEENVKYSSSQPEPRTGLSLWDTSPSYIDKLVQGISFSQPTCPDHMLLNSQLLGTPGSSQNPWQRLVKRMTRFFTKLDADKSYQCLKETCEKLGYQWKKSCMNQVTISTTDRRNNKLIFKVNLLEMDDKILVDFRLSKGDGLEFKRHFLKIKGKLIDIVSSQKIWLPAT", "assay": "Flashplate method (CHK1), measurement of the CHK1 kinase activity", "type": "biochemical", "settings": "class symbols; 'Affinity to receptors'", "description": "CHK1 kinase is expressed for the purposes of protein production in insect cells (Sf21; S. frugiperda) and subsequent purification by affinity chromatography as fusion protein with glutathione S-transferase in a baculovirus expression vector. The cultivation, infection and digestion of the cells as well as the purification of the fusion protein by column chromatography are carried out in accordance with manufacturer-oriented generic working instructions.\nThe kinase activity is measured using various available measurement systems. In the scintillation proximity method (Sorg et al., J. of. Biomolecular Screening, 2002, 7, 11-19), the flashplate method or the filter binding test, the radioactive phosphorylation of a protein or peptide as substrate is measured using radioactively labelled ATP (γ^32P-ATP, (γ^33P-ATP). In the case of the presence of an inhibitory compound, a reduced radioactive signal, or none at all, can be detected. Furthermore, homogeneous time-resolved fluorescence resonance energy transfer (HTR-FRET) and fluorescence polarisation (FP) technologies are useful as assay methods (Sills et al., J. of Biomolecular Screening, 2002, 191-214).\nThe test plates used are 384-well streptavidin-coated Flashplates Plus® from Perkin Elmer (Cat.No. SMP410A001PK). The assay plate is equilibrated with 75 μl of assay buffer per well 30 min before commencement of the experiment. The buffer is sucked out before commencement of the experiment, and the components of the kinase reaction described below are pipetted onto the plate.\nCHK1 kinase, a biotinylated substrate peptide (for example CHKtide: […]), is incubated with radioactively labelled ATP in the presence and absence of test substances at 30° Celsius and a total volume of 50 μl. The reaction is terminated using 25 μl of a 0.2 M EDTA solution. After incubation for 30 min at room temperature, the supernatants are filtered off with suction, and the wells are washed three times with 100 μl of 0.9% NaCl solution each time. The measurement of the bound radioactivity is carried out by means of a scintillation measuring instrument (Topcount NXT, Perkin-Elmer).\nThe full value used is the inhibitor-free kinase reaction. This should be approximately in the range 3000-4000 cpm. The pharmacological zero value used is staurosporin in a final concentration of 0.1 μM. The inhibitory values (IC50) are determined using the program RS1_MTS ( ).\nKinase reaction conditions per well:\n0.15 μg of CHKtide ([…])\n50 μl total volume (1-fold assay buffer reaction conditions)\nSolutions used: • assay buffer:\n0.1 mM Titriplex VI (EGTA\n10 mM magnesium acetate 0.1% mercaptoethanol\npH=7.5 (to be set using hydrochloric acid) Bovine serum albumin (final concentration 0.1%) is not added until just before use. • stop solution:\n0.2 M TitriplexIII (EDTA)\n• γ^33P-ATP (Perkin-Elmer) • CHK1 kinase preparations: specific activity>50 U/mg • CHKtide solution: biotinylated peptide substrate (Biotrend) stored as stock solution (concentration 0.15 mg/ml)."}
{"molecule": "O=c1c(NCc2cccc(O)c2)c(Nc2ccc3cc[nH]c3c2)c1=O", "note": "[Compound A28, 3-(1H-indol-6-ylamino)-4-(3-hydroxybenzyl-amino)cyclobut-3-ene-1,2-dione]", "pIC50": "< 6.00"}
{"molecule": "3-[(R)-1-(3-methoxyphenyl)ethylamino]-4-(5-methylimidazo[1,2-a]pyridin-6-ylamino)-cyclobut-3-ene-1,2-dione [Compound A58]", "pIC50": "< 6.00"}
{"molecule": "COc1ccc(F)c(CNc2c(Nc3ccc4[nH]cnc4c3)c(=O)c2=O)c1", "note": "[Compound A85, 3-(1H-benzimidazol-5-ylamino)-4-(2-fluoro-5-methoxybenzylamino)cyclobut-3-ene-1,2-dione]", "pIC50": "< 6.00"}
{"molecule": "O=c1c(NCc2cccc(Cl)c2)c(Nc2ccc3[nH]cnc3c2)c1=O", "note": "[Compound A33, 3-(1H-benzimidazol-5-ylamino)-4-(3-chloro-benzylamino)cyclobut-3-ene-1,2-dione]", "pIC50": "< 6.00"}
{"molecule": "O=c1c(NCc2cccc(O)c2)c(Nc2cc3nc[nH]c3cc2F)c1=O", "note": "[Compound A129, 3-(6-fluoro-1H-benzimidazol-5-ylamino)-4-(3-hydroxybenzylamino)cyclobut-3-ene-1,2-dione]", "pIC50": "< 6.00"}
{"molecule": "CN(C)CCOc1cccc(CNc2c(Nc3ccc4[nH]cnc4c3)c(=O)c2=O)c1", "note": "[Compound A108, 3-(1H-benzimidazol-5-ylamino)-4-[3-(2-di-methylaminoethoxy)benzylamino]cyclobut-3-ene-1,2-dione]", "pIC50": "< 6.00"}
{"molecule": "COCCn1cnc2cc(Nc3c(N[C@H](C)c4cccc(O)c4)c(=O)c3=O)ccc21", "note": "[Compound A74, 3-[(R)-1-(3-hydroxyphenyl)ethylamino]-4-[1-(2-methoxyethyl)-1H-benzimidazol-5-yl-amino]cyclobut-3-ene-1,2-dione]", "pIC50": "< 6.00"}
{"molecule": "CC(Nc1c(Nc2ccc3[nH]cnc3c2)c(=O)c1=O)c1ccc2[nH]ccc2c1", "note": "(centres unmarked) [Compound A75, 3-(1H-benzimidazol-5-ylamino)-4-[1-(1H-indol-5-yl)ethylamino]cyclobut-3-ene-1,2-dione]", "pIC50": "< 6.00"}
{"molecule": "O=C(CC(Nc1c(Nc2ccc3[nH]cnc3c2)c(=O)c1=O)c1cccc(O)c1)N1CCOCC1", "note": "(centres unmarked) [Compound A105, 3-(1H-benzimidazol-5-ylamino)-4-[1-(3-hydroxyphenyl)-3-morpholin-4-yl-3-oxo-propylamino]cyclobut-3-ene-1,2-dione]", "pIC50": "< 6.00"}
{"molecule": "COc1cccc(CNc2c(Nc3ccc4[nH]cnc4c3)c(=O)c2=O)c1", "note": "[Compound A116, 3-(1H-benzimidazol-5-ylamino)-4-(3-methoxybenzylamino)cyclobut-3-ene-1,2-dione]", "pIC50": "> 6.00"}
{"molecule": "NC(=O)c1ccc(CNc2c(Nc3ccc4[nH]cnc4c3)c(=O)c2=O)cc1", "note": "[Compound A159, 3-(1H-benzimidazol-5-ylamino)-4-(4-amino-carbonylbenzylamino)cyclobut-3-ene-1,2-dione]", "pIC50": "< 6.00"}
{"molecule": "COc1cc(CNc2c(Nc3ccc4[nH]cnc4c3)c(=O)c2=O)ccc1F", "note": "[Compound A76, 3-(1H-benzimidazol-5-ylamino)-4-(4-fluoro-3-methoxybenzylamino)cyclobut-3-ene-1,2-dione]", "pIC50": "< 6.00"}
{"molecule": "CS(=O)(=O)Nc1cccc(CNc2c(Nc3ccc4[nH]cnc4c3)c(=O)c2=O)c1", "note": "[Compound A77, 3-(1H-benzimidazol-5-ylamino)-4-(3-methyl-sulfonylaminobenzylamino)cyclobut-3-ene-1,2-dione]", "pIC50": "< 6.00"}
{"molecule": "O=c1c(NCc2cc(O)ccc2F)c(Nc2ccc3[nH]cnc3c2)c1=O", "note": "[Compound A136, 3-(1H-benzimidazol-5-ylamino)-4-(2-fluoro-5-hydroxybenzylamino)cyclobut-3-ene-1,2-dione]", "pIC50": "< 6.00"}
{"molecule": "O=c1c(NCc2cccc(O)c2)c(Nc2cc(Cl)c3[nH]cnc3c2)c1=O", "note": "[Compound A118, 3-(7-chloro-1H-benzimidazol-5-ylamino)-4-(3-hydroxybenzylamino)cyclobut-3-ene-1,2-dione]", "pIC50": "> 6.00"}
{"molecule": "O=c1c(NCc2cccc(O)c2)c(Nc2cc3nc[nH]c3cc2Cl)c1=O", "note": "[Compound A12, 3-(1H-benzimidazol-6-chloro-5-ylamino)-4-(3-hydroxybenzylamino)cyclobut-3-ene-1,2-dione]", "pIC50": "< 6.00"}
{"molecule": "3-(8-bromoimidazo[1,2-a]pyridin-6-ylamino)-4-(3-hydroxybenzylamino)cyclobut-3-ene-1,2-dione [Compound A60]", "pIC50": "> 6.00"}
{"molecule": "O=c1c(NCc2ccc(O)cc2)c(Nc2ccc3[nH]cnc3c2)c1=O", "note": "[Compound A139, 3-(1H-benzimidazol-5-ylamino)-4-(4-hydroxy-benzylamino)cyclobut-3-ene-1,2-dione]", "pIC50": "< 6.00"}
{"molecule": "O=c1c(NCCc2ccccc2O)c(Nc2ccc3[nH]cnc3c2)c1=O", "note": "[Compound A149, 3-(1H-benzimidazol-5-ylamino)-4-[2-(2-hydroxyphenyl)ethylamino]cyclobut-3-ene-1,2-dione]", "pIC50": "< 6.00"}
{"molecule": "O=c1[nH]c2ccc(CNc3c(Nc4ccc5[nH]cnc5c4)c(=O)c3=O)cc2[nH]1", "note": "[Compound A80, 3-(1H-benzimidazol-5-ylamino)-4-[(2-oxo-2,3-dihydro-1H-benzimidazol-5-ylmethyl)amino]-cyclobut-3-ene-1,2-dione]", "pIC50": "< 6.00"}
{"molecule": "3-(1H-benzimidazol-5-ylamino)-4-[(S)-1-(3-hydroxyphenyl)ethylamino]cyclobut-3-ene-1,2-dione [Compound A4]", "pIC50": "< 6.00"}
{"molecule": "COCCn1cnc2ccc(Nc3c(NCc4cccc(-c5nnn[nH]5)c4)c(=O)c3=O)cc21", "note": "[Compound A69, 3-[3-(2-methoxyethyl)-3H-benzimidazol-5-ylamino]-4-[3-(1H-tetrazol-5-yl)benzylamino]-cyclobut-3-ene-1,2-dione]", "pIC50": "< 6.00"}
{"molecule": "COCCn1cnc2ccc(Nc3c(N[C@H](C)c4cccc(O)c4)c(=O)c3=O)cc21", "note": "[Compound A68, 3-[3-(2-methoxyethyl)-3H-benzimidazol-5-ylamino]-4-[(R)-1-(3-hydroxyphenyl)ethyl-amino]cyclobut-3-ene-1,2-dione]", "pIC50": "> 6.00"}
{"molecule": "O=c1c(NCc2cccc(OCCO)c2)c(Nc2ccc3[nH]cnc3c2)c1=O", "note": "[Compound A107, 3-(1H-benzimidazol-5-ylamino)-4-[3-(2-hydroxyethoxy)benzylamino]cyclobut-3-ene-1,2-dione]", "pIC50": "< 6.00"}
{"molecule": "CN1CCN(c2ccc(CNc3c(Nc4ccc5[nH]cnc5c4)c(=O)c3=O)cc2)CC1", "note": "[Compound A141, 3-(1H-benzimidazol-5-ylamino)-4-[4-(4-methylpiperazin-1-yl)benzylamino]cyclobut-3-ene-1,2-dione]", "pIC50": "< 6.00"}
{"molecule": "O=C(O)CC(Nc1c(Nc2ccc3[nH]cnc3c2)c(=O)c1=O)c1cccc(O)c1", "note": "(centres unmarked) [Compound A99, 3-[2-(1H-benzimidazol-5-ylamino)-3,4-dioxo-cyclobut-1-enylamino]-3-(3-hydroxyphenyl)-propionic acid]", "pIC50": "< 6.00"}
{"molecule": "3-(8-bromoimidazo[1,2-a]pyridin-6-ylamino)-4-[(R)-1-(3-methoxyphenyl)ethylamino]-cyclobut-3-ene-1,2-dione [Compound A63]", "pIC50": "< 6.00"}
{"molecule": "CC(=O)NCCOc1cccc(CNc2c(Nc3ccc4[nH]cnc4c3)c(=O)c2=O)c1", "note": "[Compound A109, 3-(1H-benzimidazol-5-ylamino)-4-[3-(2-acetamidoethoxy)benzylamino]cyclobut-3-ene-1,2-dione]", "pIC50": "< 6.00"}
{"molecule": "CNS(=O)(=O)c1ccc(CN(C)c2c(Nc3ccc4[nH]cnc4c3)c(=O)c2=O)cc1", "note": "[Compound A153, 3-(1H-benzimidazol-5-ylamino)-4-[4-(N-methylaminosulfonyl)benzyl-N-methylamino]-cyclobut-3-ene-1,2-dione]", "pIC50": "< 6.00"}
